Reference: PubChem BioAssay (NCI)
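Each compound was tested at five concentrations against cells in 96-well plates for 48 hours. GI50 = concentration required for 50% inhibition of growth. TGI is the concentration that stops growth completely.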 Where a SMILES comes first, the peptide text is derived from it. [ ]: non-standard residue; d: D form. The star is where a group is joined. ξ: configuration not given here. ξF = NC(Cc1ccccc1)C(=O)O; Cbz = O=C(OCc1ccccc1)*; Aib = CC(C)(N)C(=O)O

How the values were obtained:
Assay in all cases: growth of human tumour cells (NCI), 48 h
[1] = system: SK-MEL-28 melanoma
[2] = system: CAKI-1 renal
[3] = system: NCI/ADR-RES ovarian
[4] = system: OVCAR-4 ovarian
[5] = system: RXF 393 renal
[6] = system: NCI-H460 lung
[7] = system: HT29 colon
[8] = system: HCT-15 colon
[9] = system: UO-31 renal
[10] = system: SW-620 colon

Structure (SMILES) | TGI [1] [µM] | TGI [2] [µM] | TGI [3] [µM] | TGI [4] [µM] | TGI [5] [µM] | TGI [6] [µM] | TGI [7] [µM] | TGI [8] [µM] | TGI [9] [µM] | TGI [10] [µM] | GI50 [2] [µM] | GI50 [3] [µM] | GI50 [4] [µM] | GI50 [5] [µM] | GI50 [9] [µM] | GI50 [10] [µM] | GI50 [1] [µM] | GI50 [6] [µM] | GI50 [7] [µM] | GI50 [8] [µM]
Nc1nc2ccc(OCC(O)CN3CCCCC3)cc2[n+]([O-])n1 (stereo unspecified) | > 100 | > 100 | > 100 | > 100 | > 100 | > 100 | > 100 | > 100 | > 100 | > 100 |  |  |  |  |  |  |  |  |  | 
N=C(N)c1ccc(-c2ccc(-c3cccs3)s2)s1 |  | 2.95 | 3.62 | 4.16 | 0.924 | 0.229 |  |  | 2.1 | 3.21 | 1.57 | 1.79 | 1.33 | 0.29 | 0.318 | 1.63 |  |  |  | 
CCOC(=O)CCC(NC(=O)OCc1ccccc1)C(=O)NC(CCC(=O)OCC)C(=O)NNC(=O)OC(C)(C)C (stereo unspecified) | > 100 | > 100 | > 100 |  | > 100 | > 100 |  | > 100 | > 100 |  |  |  |  |  |  |  |  |  |  | 
c1cncc(O[Si](Oc2cccnc2)(Oc2cccnc2)Oc2cccnc2)c1 | > 100 | > 100 |  | > 100 | > 100 | > 100 | > 100 | > 100 | > 100 | > 100 |  |  |  |  |  |  |  |  |  | 
Nc1c(-c2ccccc2[N+](=O)[O-])nc2ccccn12 | > 100 |  |  |  | > 100 | > 100 | > 100 | > 100 | > 100 | > 100 |  |  |  |  |  |  |  |  |  | 
COc1cc(Nc2nnc3n2S(=O)(=O)c2cc(C)c(Cl)cc2S3)cc(OC)c1 | > 100 | 79 | > 100 | 24.4 | 49.3 | > 100 | > 100 | > 100 | > 100 |  |  |  |  |  |  |  |  |  |  | 
Cc1ccc(N2CCN(CCC(=O)O)CC2)cc1 | > 100 | > 100 | > 100 | > 100 | > 100 | > 100 | > 100 | > 100 | > 100 | > 100 |  |  |  |  |  |  |  |  |  | 
NCCSCc1ccccc1Cl | > 100 | > 100 | > 100 | > 100 | > 100 | > 100 | > 100 | > 100 | > 100 | > 100 |  |  |  |  |  |  |  |  |  | 
CCOc1ccc(N=NS(=O)(=O)O)cc1 | > 100 | > 100 | > 100 | > 100 | > 100 | > 100 | > 100 | > 100 | > 100 | > 100 |  |  |  |  |  |  |  |  |  | 
CC(=O)ON1C(=O)c2cccc3cccc(c23)C1=O | 44.6 | 49 | > 100 | 40.7 | 25.5 | 41.7 | > 100 | > 100 | > 100 | > 100 |  |  |  |  |  |  |  |  |  | 
COC(=O)C(C)(C)NC(=O)C(Cc1ccccc1)NC(=O)C(C)(C)NC(=O)OCc1ccccc1 (stereo unspecified) (Cbz-[Aib]-[ξF]-[Aib]-OMe) | > 100 | > 100 | > 100 | > 100 |  | > 100 | > 100 | > 100 | > 100 | > 100 |  |  |  |  |  |  |  |  |  | 
C(=N\OCCc1ccccc1)/c1cccnc1 | > 100 |  | > 100 | > 100 | > 100 | > 100 | > 100 | > 100 | > 100 | > 100 |  |  |  |  |  |  |  |  |  | 
COc1cc(-c2n/c(=C\c3c(O)[nH]c4cc(Cl)ccc34)cc3c2=Nc2ccccc2-3)cc(OC)c1OC | 13.8 | 60 | 20.1 | 6.36 | 7.34 | 81.7 | 7.05 | > 100 | > 100 | 54.9 | 10.9 | 2.84 | 2.59 | 2.37 | 18.3 | 4.07 | 4.05 | 4.56 | 2.67 | 30.9
Clc1ccc(-c2ccc(-c3nnc(COc4ccc(OCc5nnc(-c6ccc(-c7ccc(Cl)cc7Cl)o6)o5)c(Cl)c4)o3)o2)c(Cl)c1 | > 100 | > 100 | > 100 | > 100 | 73.2 | > 100 | > 100 | > 100 | > 100 | > 100 |  |  |  |  |  |  |  |  |  | 
C[CH2][Ge]([CH2]C)([CH2]C)[O]C(=O)CCC(=O)[O][Ge]([CH2]C)([CH2]C)[CH2]C | > 100 | > 100 |  | > 100 | > 100 | > 100 | > 100 | > 100 | > 100 | > 100 | > 100 |  | > 100 | > 100 | 87.5 | > 100 | > 100 | 24.8 | 40.2 | 48.4
NC(=O)/C=c1/c2ccccc2n2nc3ccccc3c12 | 33.9 | 82.5 | 50.7 | 39.4 | 46.5 | > 100 | 29.8 | 40.8 | 77 | 44.5 |  |  |  |  |  |  |  |  |  | 
